# In paper PMC6437697 (Journal of Medicinal Chemistry, 2019):
# Experiments:
# Assay in all cases: KINOMEscan
# Type in all cases: binding
# Settings in all cases: read-out: % control activity remaining
# [1] = target: T1, ABL1(M351T)-phosphorylated (Homo sapiens, UniProt P00519, M351T)
# T1 construct: purchased Eurofins DiscoverX KINOMEscan
# [2] = target: T2, ABL1(Q252H)-nonphosphorylated (Homo sapiens, UniProt P00519, Q252H)
# T2 construct: purchased Eurofins DiscoverX KINOMEscan
# CAMK4 = target: T3, CAMK4 (Homo sapiens, UniProt Q16566)
# T3 construct: purchased Eurofins DiscoverX KINOMEscan
# CLK2 = target: T4, CLK2 (Homo sapiens, UniProt P49760)
# T4 construct: purchased Eurofins DiscoverX KINOMEscan
# ERK1 = target: T5, ERK1 (Homo sapiens, UniProt P27361)
# T5 construct: purchased Eurofins DiscoverX KINOMEscan
# KIT-autoinhibited = target: T6, KIT-autoinhibited (Homo sapiens, UniProt P10721)
# T6 construct: purchased Eurofins DiscoverX KINOMEscan
# PIK3CD = target: T7, PIK3CD (Homo sapiens, UniProt O00329)
# T7 construct: purchased Eurofins DiscoverX KINOMEscan
# T7 sequence (O00329 1-1044): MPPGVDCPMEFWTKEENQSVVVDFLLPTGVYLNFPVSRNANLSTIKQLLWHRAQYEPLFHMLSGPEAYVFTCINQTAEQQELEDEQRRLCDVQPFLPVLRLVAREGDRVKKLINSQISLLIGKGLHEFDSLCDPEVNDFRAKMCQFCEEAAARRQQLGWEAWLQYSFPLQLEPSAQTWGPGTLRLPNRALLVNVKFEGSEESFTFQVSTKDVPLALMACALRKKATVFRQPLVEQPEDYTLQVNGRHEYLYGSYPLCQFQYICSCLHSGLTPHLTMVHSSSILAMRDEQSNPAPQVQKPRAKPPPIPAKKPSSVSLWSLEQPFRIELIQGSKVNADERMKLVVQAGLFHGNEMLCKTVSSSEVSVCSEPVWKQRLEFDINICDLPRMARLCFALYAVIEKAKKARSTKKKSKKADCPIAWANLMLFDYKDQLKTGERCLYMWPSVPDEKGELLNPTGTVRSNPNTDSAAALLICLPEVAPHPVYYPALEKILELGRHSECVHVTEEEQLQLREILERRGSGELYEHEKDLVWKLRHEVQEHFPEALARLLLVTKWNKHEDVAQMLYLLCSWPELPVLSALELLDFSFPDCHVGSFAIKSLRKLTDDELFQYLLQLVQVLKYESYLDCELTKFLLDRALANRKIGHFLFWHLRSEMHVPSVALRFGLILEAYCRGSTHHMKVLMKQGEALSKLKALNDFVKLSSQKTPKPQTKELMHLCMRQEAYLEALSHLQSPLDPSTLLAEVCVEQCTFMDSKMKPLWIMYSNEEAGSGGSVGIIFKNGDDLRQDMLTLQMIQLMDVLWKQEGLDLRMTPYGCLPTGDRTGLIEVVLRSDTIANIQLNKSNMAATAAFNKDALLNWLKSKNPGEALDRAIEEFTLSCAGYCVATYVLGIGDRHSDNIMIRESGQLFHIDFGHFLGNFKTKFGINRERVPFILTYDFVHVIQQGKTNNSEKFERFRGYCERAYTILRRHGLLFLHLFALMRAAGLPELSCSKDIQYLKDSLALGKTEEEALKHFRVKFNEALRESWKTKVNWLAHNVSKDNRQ
# TEC = target: T8, TEC (Homo sapiens, UniProt P42680)
# T8 construct: purchased Eurofins DiscoverX KINOMEscan
# T8 sequence (P42680 1-631): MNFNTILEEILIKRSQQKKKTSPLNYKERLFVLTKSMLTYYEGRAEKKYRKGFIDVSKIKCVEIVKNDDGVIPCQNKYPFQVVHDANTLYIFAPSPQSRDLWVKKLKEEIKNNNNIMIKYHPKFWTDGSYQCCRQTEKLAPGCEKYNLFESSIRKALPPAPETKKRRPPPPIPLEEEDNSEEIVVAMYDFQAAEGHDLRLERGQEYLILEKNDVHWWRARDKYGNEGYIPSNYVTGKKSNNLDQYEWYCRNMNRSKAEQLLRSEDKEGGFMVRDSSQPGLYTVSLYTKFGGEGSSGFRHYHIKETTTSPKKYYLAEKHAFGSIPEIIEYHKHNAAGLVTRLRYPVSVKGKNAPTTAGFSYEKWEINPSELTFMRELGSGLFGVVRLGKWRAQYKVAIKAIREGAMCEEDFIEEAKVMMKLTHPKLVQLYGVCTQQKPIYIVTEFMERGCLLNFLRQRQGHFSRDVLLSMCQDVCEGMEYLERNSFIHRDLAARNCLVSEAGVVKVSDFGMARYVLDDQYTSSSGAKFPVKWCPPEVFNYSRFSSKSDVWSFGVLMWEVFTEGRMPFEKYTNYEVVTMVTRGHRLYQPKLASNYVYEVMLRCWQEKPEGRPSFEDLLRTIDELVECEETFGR
# WNK1 = target: T9, WNK1 (Homo sapiens, UniProt Q9H4A3)
# T9 construct: purchased Eurofins DiscoverX KINOMEscan
# T9 sequence (Q9H4A3 whole entry): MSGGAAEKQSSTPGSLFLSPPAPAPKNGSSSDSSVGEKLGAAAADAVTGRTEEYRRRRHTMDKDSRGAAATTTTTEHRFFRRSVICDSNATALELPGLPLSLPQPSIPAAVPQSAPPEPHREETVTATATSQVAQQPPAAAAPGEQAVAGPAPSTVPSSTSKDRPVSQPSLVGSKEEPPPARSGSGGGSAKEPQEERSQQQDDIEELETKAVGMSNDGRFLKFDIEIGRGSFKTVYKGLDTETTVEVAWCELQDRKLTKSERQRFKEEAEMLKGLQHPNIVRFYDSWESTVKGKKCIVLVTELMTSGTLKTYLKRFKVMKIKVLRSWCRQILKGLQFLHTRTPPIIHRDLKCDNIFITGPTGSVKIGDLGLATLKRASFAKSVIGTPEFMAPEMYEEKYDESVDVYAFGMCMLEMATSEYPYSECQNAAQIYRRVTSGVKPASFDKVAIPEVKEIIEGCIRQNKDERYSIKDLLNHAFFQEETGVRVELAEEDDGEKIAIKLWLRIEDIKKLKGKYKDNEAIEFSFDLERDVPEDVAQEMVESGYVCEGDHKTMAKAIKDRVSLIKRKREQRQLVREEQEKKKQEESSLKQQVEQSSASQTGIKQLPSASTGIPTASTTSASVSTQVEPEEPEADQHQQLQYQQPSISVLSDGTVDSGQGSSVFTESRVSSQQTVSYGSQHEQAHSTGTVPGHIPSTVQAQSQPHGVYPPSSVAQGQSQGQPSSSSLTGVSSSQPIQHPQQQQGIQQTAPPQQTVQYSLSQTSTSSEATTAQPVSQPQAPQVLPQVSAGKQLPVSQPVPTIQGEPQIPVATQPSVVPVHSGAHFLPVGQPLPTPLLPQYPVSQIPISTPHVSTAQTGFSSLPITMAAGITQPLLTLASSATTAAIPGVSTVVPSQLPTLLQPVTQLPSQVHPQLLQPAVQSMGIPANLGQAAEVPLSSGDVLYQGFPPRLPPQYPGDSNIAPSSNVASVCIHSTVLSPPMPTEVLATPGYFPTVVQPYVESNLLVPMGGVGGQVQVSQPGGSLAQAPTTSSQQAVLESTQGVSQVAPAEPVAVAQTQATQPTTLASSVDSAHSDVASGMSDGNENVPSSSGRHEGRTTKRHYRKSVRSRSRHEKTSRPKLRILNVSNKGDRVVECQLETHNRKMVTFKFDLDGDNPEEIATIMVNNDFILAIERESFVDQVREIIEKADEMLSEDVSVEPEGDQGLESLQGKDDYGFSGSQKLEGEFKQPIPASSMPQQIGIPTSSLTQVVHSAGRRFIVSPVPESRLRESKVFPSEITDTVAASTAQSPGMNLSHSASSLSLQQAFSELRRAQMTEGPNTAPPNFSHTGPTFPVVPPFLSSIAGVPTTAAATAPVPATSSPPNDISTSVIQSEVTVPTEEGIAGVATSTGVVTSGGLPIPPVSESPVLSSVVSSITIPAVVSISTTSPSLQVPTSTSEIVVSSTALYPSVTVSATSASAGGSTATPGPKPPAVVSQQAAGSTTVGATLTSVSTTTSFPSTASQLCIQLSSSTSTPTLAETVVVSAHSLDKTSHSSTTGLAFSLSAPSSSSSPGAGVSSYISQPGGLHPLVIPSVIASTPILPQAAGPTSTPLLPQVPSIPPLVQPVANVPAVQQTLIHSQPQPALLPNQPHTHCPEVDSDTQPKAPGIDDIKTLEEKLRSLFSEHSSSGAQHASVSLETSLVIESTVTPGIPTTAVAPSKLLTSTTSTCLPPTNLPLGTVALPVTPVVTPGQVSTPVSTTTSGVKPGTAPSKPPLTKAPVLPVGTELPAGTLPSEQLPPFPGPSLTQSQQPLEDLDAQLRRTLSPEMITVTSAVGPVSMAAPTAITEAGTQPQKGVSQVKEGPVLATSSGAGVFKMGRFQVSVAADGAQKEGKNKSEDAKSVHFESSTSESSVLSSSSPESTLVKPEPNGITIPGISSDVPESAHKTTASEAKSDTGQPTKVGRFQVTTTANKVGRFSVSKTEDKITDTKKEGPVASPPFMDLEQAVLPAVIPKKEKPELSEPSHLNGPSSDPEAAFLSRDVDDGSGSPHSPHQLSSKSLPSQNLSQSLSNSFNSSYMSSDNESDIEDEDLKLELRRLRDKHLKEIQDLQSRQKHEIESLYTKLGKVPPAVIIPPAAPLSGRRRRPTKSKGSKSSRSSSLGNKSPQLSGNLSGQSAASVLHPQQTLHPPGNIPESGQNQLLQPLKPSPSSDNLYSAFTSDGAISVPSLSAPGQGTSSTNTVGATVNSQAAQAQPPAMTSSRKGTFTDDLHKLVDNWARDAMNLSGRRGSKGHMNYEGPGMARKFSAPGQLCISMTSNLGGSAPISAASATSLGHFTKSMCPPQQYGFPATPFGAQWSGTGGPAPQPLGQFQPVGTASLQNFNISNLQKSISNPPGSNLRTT
# T4 sequence (P49760 whole entry): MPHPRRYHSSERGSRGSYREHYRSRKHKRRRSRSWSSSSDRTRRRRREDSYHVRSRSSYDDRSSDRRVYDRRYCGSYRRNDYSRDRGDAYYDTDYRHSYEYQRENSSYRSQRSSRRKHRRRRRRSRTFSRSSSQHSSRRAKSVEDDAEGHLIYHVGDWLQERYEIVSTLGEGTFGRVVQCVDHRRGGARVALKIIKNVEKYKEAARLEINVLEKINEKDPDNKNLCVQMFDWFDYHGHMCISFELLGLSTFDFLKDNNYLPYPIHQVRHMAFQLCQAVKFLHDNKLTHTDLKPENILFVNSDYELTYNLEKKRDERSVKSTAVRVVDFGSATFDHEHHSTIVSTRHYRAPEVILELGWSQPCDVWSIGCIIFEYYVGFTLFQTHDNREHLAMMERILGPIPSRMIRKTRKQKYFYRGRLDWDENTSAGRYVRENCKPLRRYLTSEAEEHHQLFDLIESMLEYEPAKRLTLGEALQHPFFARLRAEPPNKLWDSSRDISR
# T5 sequence (P27361 whole entry): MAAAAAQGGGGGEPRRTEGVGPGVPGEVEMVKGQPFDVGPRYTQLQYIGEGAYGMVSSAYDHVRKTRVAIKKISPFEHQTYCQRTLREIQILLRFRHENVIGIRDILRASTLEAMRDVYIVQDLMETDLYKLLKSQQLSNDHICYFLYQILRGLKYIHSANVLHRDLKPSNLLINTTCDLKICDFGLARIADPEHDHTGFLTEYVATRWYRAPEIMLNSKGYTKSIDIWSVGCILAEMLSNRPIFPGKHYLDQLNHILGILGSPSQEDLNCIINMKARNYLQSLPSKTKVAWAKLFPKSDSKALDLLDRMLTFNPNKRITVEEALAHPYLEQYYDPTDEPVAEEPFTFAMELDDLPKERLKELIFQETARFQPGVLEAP
# T6 sequence (P10721 26-976): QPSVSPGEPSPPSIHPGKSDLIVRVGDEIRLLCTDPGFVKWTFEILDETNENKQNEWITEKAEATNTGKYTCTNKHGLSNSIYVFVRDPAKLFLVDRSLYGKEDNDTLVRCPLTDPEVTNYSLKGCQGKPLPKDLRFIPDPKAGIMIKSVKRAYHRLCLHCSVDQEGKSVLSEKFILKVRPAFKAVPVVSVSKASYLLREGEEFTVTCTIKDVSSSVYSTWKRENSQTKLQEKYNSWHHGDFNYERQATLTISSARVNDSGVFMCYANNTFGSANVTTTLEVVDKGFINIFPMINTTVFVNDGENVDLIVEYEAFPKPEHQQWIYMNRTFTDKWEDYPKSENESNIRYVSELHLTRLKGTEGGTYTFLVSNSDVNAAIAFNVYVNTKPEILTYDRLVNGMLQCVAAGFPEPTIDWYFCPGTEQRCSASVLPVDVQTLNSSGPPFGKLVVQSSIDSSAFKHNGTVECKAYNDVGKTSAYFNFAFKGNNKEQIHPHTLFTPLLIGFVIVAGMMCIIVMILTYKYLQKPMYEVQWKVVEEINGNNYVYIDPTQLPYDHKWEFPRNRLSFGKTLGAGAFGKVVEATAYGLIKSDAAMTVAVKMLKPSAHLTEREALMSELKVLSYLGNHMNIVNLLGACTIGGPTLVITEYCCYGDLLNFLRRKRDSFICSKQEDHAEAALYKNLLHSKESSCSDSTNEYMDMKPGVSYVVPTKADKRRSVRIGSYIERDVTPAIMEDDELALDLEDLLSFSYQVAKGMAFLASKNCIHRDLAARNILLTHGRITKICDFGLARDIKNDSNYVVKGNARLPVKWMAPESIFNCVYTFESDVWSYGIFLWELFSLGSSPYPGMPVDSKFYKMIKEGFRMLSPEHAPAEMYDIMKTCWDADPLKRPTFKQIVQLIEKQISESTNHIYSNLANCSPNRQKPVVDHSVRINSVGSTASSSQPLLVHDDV
# T3 sequence (Q16566 whole entry, looked up): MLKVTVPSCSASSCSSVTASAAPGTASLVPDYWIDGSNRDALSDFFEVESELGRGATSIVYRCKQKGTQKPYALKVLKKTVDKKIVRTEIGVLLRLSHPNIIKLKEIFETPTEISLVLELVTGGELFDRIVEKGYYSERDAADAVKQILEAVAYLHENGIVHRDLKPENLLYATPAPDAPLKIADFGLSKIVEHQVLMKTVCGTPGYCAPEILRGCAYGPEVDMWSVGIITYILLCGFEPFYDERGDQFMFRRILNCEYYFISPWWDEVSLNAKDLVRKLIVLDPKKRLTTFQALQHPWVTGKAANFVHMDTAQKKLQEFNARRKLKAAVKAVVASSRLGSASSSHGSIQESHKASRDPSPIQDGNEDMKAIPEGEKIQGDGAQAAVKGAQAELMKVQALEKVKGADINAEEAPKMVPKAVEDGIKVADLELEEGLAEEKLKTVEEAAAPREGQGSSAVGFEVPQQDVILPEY
Compound,remaining binding at 1 µM [1],remaining binding at 1 µM [2],remaining binding at 1 µM (CAMK4),remaining binding at 1 µM (CLK2),remaining binding at 1 µM (ERK1),remaining binding at 1 µM (KIT-autoinhibited),remaining binding at 1 µM (PIK3CD),remaining binding at 1 µM (TEC),remaining binding at 1 µM (WNK1)
"CN1CCC(CNc2cc(Cl)nn3c(-c4cc5nc(Nc6ccccc6)[nH]c5cc4F)cnc23)CC1 [compound 31, 6-Chloro-3-(6-fluoro-2-(phenylamino)-1H-benzo[d]imidazol-5-yl)-N-((1-methylpiperidin-4-yl)methyl)imidazo[1,2-b]pyridazin-8-amine]",78%,64%,100%,79%,92%,98%,75%,88%,76%
O=C(CN1CCOCC1)N[C@H]1CC[C@H](Nc2cc(Cl)nn3c(-c4ccc5[nH]ncc5c4)cnc23)CC1 [compound 26],57%,48%,100%,4.2%,100%,34%,90%,97%,100%
"Clc1cc(NCC2CC2)c2ncc(-c3ccc4[nH]ncc4c3)n2n1 [compound 2, 6-Chloro-N-(cyclopropylmethyl)-3-(1H-indazol-5-yl)imidazo[1,2-b]pyridazin-8-amine]",91%,93%,100%,9.6%,95%,82%,92%,100%,89%
